Patent US10357576B2, “18F-labelled folate/antifolate analogues” (MERCK & CIE, priority 2012, dated 2019)

How the values were obtained:
[1] = test system: KB tumor xenografts; assay: Biodistribution studies in nude mice bearing KB tumor xenografts; assay type: in vivo, nude mice (CD-1 Foxn-1/nu)
From the text: In vivo experiments were approved by the local veterinarian department and conducted in accordance to the Swiss law of animal protection. Six to eight-week-old female, athymic nude mice (CD-1 Foxn-1/nu) were purchased from Charles River Laboratories (Sulzfeld, Germany). The animals were fed with a folate-deficient rodent diet starting 5 days prior to the tumor cell inoculation. Mice were inoculated with KB cells (5×10^6 cells in […] PBS) into the subcutis of each shoulder. Animal experiments were performed approximately 14 days after tumor cell inoculation. Biodistribution studies were performed in triplicate. [^18F]-3′-aza-2′-fluorofolic acid was diluted in PBS pH 7.4 to the desired radioactivity concentration (˜5 MBq per mouse) for immediate administration via a lateral tail vein.
[…] Selected tissues and organs were collected, weighed, and counted for radioactivity in a −counter. The results were listed as percentage of the injected dose per gram of tissue weight [% ID/g], using reference counts from a definite sample of the original injectate that was counted at the same time.
The obtained are summarized in Table 2 and represent the percentage injected dose per gram tissue [% ID/g] averaged from three or four animals (Table 2).

[2] = Stability experiments using liver microsomes (mouse); assay type: in vitro ADME; details: 37° C., 1 h, NADPH regenerating system, radio-UPLC
From the text: General: Reagents and solvents were purchased from Sigma-Aldrich Chemie GmbH, Acros Organics or VWR International AG if nothing else is mentioned. All chemicals were used as supplied. Human and mouse (female CD-1) microsomes and the NADPH regenerating systems were purchased from BD biosciences.
(§1) Radio-UPLC: For stability studies, an ultra-performance liquid chromatography (UPLC™, Waters) system, equipped with an Acquity UPLC BEH C18 column (1.7 μm, 2.1×50 mm, Waters) and a coincidence detector (FlowStar LB513, Berthold) was used with following solvent system: eluent A was a NaH2PO4/Na2HPO4 buffer (0.05 M, pH 7.4) and eluent B was acetonitrile. A gradient from 0-4.0 min 100%-40% A, at a flow rate of 0.6 ml/min was used.
To a mixture of KH2PO4/K2HPO4 buffer (pH 7.4, 0.5 M, 200 μl), NADPH regenerating system A (50 μl), NADPH regenerating system B (10 μl), an aliquot of [^18F]-3′-aza-2′-fluorofolic acid (38 μl, approx. 15 MBq) was added and filled up with water (677 μl) to a volume of 975 μl and preincubated at 37° C. Then, mouse or human liver microsomes (20 mg/ml, 25 μl) were added and incubated at 37° C. After several time points (0, 20, 40 and 60 min) aliquots (100 μl) were drawn and the enzymatical reaction was stopped by purring the solution into ice-cold methanol (200 μl). […] Every time point was performed as a triplicate and analyzed on a radio-UPLC system. […]

[3] = Stability experiments using glutathione / S9-fraction; assay type: in vitro ADME, human; details: 37° C., 1 h, radio-UPLC
Protocol: as §1
Glutathione (0.1 M, 100 μl), S9-fraction (20 mg/ml, 50 μl) and KH2PO4/K2HPO4 buffer (pH 7.4, 0.5 M, 200 μl) were diluted with water (612 μl) to a volume of […] and [^18F]-3′-aza-2′-fluorofolic acid (38 μl, approx. 15 MBq) was added. The mixture was incubated at 37° C. At several time points aliquots (100 μl) were drawn and the reaction was stopped by pouring the sample into ice-cold methanol (200 μl). Each sample was diluted with NaH2PO4/Na2HPO4 buffer (pH 7.4, 0.05 M, 600 μl). Every time point was performed as duplicates and analyzed on a radio-UPLC system.

[4] = 60 min p.i. blockade (100 μg folic acid 10 min before radiotracer)

## Nc1nc2ncc(CNc3ccc(C(=O)N[C@@H](CCC(=O)O)C(=O)O)c([18F])n3)nc2c(=O)[nH]1 [3′-aza-2′-[^18F]fluorofolic acid]
[1]; 30 min p.i., i.v.
  % ID/g in Blood: 1.2 ± 0.3 % ID/g
  % ID/g in Bone: 2.1 ± 0.3 % ID/g
  % ID/g in Feces: 1.2 ± 0.2 % ID/g
  % ID/g in Gallbladder: 8.1 ± 2.9 % ID/g
  % ID/g in Heart: 2.1 ± 0.2 % ID/g
  % ID/g in Intestine: 1.4 ± 0.1 % ID/g
  % ID/g in Kidneys: 54.8 ± 6.1 % ID/g
  % ID/g in Liver: 13.7 ± 2.9 % ID/g
  % ID/g in Lungs: 2.0 ± 0.3 % ID/g
  % ID/g in Muscle: 1.7 ± 0.4 % ID/g
  % ID/g in Salivary glands: 9.0 ± 1.3 % ID/g
  % ID/g in Spleen: 1.3 ± 0.2 % ID/g
  % ID/g in Stomach: 2.8 ± 0.5 % ID/g
  % ID/g in Tumor: 11.7 ± 0.9 % ID/g
  Ratio Tumor/Blood: 11.1 ± 4.1
  Ratio Tumor/Kidneys: 0.2 ± 0.1
  Ratio Tumor/Liver: 0.9 ± 0.2
[1]; [4]
  % ID/g in Blood: 0.8 ± 0.3 % ID/g
  % ID/g in Bone: 0.6 ± 0.3 % ID/g
  % ID/g in Feces: 6.0 ± 1.1 % ID/g
  % ID/g in Gallbladder: 15.8 ± 9.3 % ID/g
  % ID/g in Heart: 0.4 ± 0.2 % ID/g
  % ID/g in Intestine: 1.3 ± 0.6 % ID/g
  % ID/g in Kidneys: 5.9 ± 4.5 % ID/g
  % ID/g in Liver: 10.9 ± 3.4 % ID/g
  % ID/g in Lungs: 0.7 ± 0.3 % ID/g
  % ID/g in Muscle: 0.3 ± 0.1 % ID/g
  % ID/g in Salivary glands: 0.6 ± 0.2 % ID/g
  % ID/g in Spleen: 0.4 ± 0.2 % ID/g
  % ID/g in Stomach: 0.6 ± 0.3 % ID/g
  % ID/g in Tumor: 1.7 ± 0.4 % ID/g
  Ratio Tumor/Blood: 2.2 ± 0.3
  Ratio Tumor/Kidneys: 0.4 ± 0.2
  Ratio Tumor/Liver: 0.2 ± 0.1
[1]; 60 min p.i., i.v.
  % ID/g in Blood: 0.6 ± 0.1 % ID/g
  % ID/g in Bone: 1.6 ± 0.3 % ID/g
  % ID/g in Feces: 3.0 ± 2.0 % ID/g
  % ID/g in Gallbladder: 8.4 ± 1.8 % ID/g
  % ID/g in Heart: 1.9 ± 0.3 % ID/g
  % ID/g in Intestine: 1.9 ± 0.2 % ID/g
  % ID/g in Kidneys: 53.6 ± 3.2 % ID/g
  % ID/g in Liver: 10.6 ± 0.9 % ID/g
  % ID/g in Lungs: 1.5 ± 0.2 % ID/g
  % ID/g in Muscle: 1.2 ± 0.2 % ID/g
  % ID/g in Salivary glands: 15.0 ± 6.1 % ID/g
  % ID/g in Spleen: 1.9 ± 0.1 % ID/g
  % ID/g in Stomach: 2.8 ± 0.9 % ID/g
  % ID/g in Tumor: 11.9 ± 1.7 % ID/g
  Ratio Tumor/Blood: 21.6 ± 2.3
  Ratio Tumor/Kidneys: 0.2 ± 0.1
  Ratio Tumor/Liver: 1.1 ± 0.2
[1]; 90 min p.i., i.v.
  % ID/g in Blood: 0.6 ± 0.1 % ID/g
  % ID/g in Bone: 1.6 ± 0.3 % ID/g
  % ID/g in Feces: 1.8 ± 0.3 % ID/g
  % ID/g in Gallbladder: 9.3 ± 0.6 % ID/g
  % ID/g in Heart: 1.8 ± 0.1 % ID/g
  % ID/g in Intestine: 2.3 ± 0.4 % ID/g
  % ID/g in Kidneys: 57.3 ± 8.4 % ID/g
  % ID/g in Liver: 10.3 ± 2.4 % ID/g
  % ID/g in Lungs: 1.6 ± 0.3 % ID/g
  % ID/g in Muscle: 1.5 ± 0.4 % ID/g
  % ID/g in Salivary glands: 14.1 ± 0.9 % ID/g
  % ID/g in Spleen: 2.2 ± 0.2 % ID/g
  % ID/g in Stomach: 2.7 ± 0.1 % ID/g
  % ID/g in Tumor: 12.6 ± 1.8 % ID/g
  Ratio Tumor/Blood: 23.8 ± 4.1
  Ratio Tumor/Kidneys: 0.2 ± 0.1
  Ratio Tumor/Liver: 1.3 ± 0.4
[2]
  Stability in mouse liver microsomes: completely stable
[3]
  Stability with glutathione and S9-fraction: completely stable
